Measured values published in patent EP0381345B1, “Aqueous liquid desmopressin-CMC pharmaceutical composition” (CORINT, LTD., priority 1989, dated 1990).
Marks after values point to notes of the source that are not given here.

What was measured:
Normal test subjects = settings: in vivo
Protocol: Normal test subjects were loaded with 1.5% body weight of water under constantly maintained conditions, with urine being collected every 30 minutes, as described by J.H. Cort et al., Kidney International. 8:292, 1975, and then they were administered dDAVP intranasally, using a standard 0.1 mg/ml formulation obtained from Ferring AB of Malmo. A portion of the dDAVP was set aside, while Na-CMC was added to another portion to form a solution having a CMC:dDAVP weight ratio of 100:1.

in vivo = settings: male, rat, sc, pH 4
[1] = in vivo, iv; cited from earlier work

- Cmax (in vivo): 0.027 ng/mL
- Tmax (in vivo): 8.8 min
- half-life (in vivo): 20.5 min
Compound: NC(=O)CC[C@@H]1NC(=O)[C@H](Cc2ccccc2)NC(=O)[C@H](Cc2ccc(O)cc2)NC(=O)CCSSC[C@@H](C(=O)N2CCC[C@H]2C(=O)N[C@H](CCCN=C(N)N)C(=O)NCC(N)=O)NC(=O)[C@H](CC(N)=O)NC1=O [dDAVP, desmopressin]
- Peak % Inhibition of Diuretic Urine Flow (Normal test subjects): -76.7* %
- half-life (T1/2) [1]: 17 to 18 min
